Experimental data: patent publication US20190169181A1, “FUMAGILLOL COMPOUNDS AND METHODS OF MAKING AND USING SAME” (Zafgen, Inc., priority 2016, published 2019)
Where a name gives a salt, the structure may show the parent alone.

How the values were obtained:
recombinant human MetAP2 = target: T1, recombinant human MetAP2 (Homo sapiens, UniProt P50579); experiment: Recombinant human MetAP2 enzyme inhibition assay (MAS peptide / amino acid oxidase / Amplex Ultrared readout); type: biochemical; details: Flag tagged human recombinant MetAP2, 25 minutes at 25° C.
T1 construct: Flag; made in house
Procedure: Compounds are tested for their capacity to inhibit recombinant human MetAP2 activity using the following assay.
Flag tagged Human recombinant MetAP2 expressed and isolated for use as the enzyme source. 10 mM stock solutions of compounds were prepared in 100% DMSO and further diluted in 100% DMSO required concentration to 1 mM stocks. The stock compound solutions and DMSO vehicle controls were diluted to target final compound concentrations using assay buffer to a final concentration of 50 mM HEPES containing 100 mM NaCl, pH adjusted to 7.5. The MAS peptide was formulated to a 7.5 mM stock in distilled water and prior to use further diluted 1:4. […] 40 μl of enzyme was mixed with 100 μl of MnCl2 then further diluted in assay buffer to a final concentration of 16 μg/ml. To test for compound effect on MetAP2 enzyme activity, 5 μl of test compound, 10 μl of MAS substrate/amino acid oxidase mixture, 10 μl of MetAP2 was added to test wells in a 384 well black plate with blank wells containing no enzyme, replaced with 10 μl of assay buffer. All compounds were tested in duplicate on two occasions on the same day.
The plate was sealed with a TopSeal A cover and mixed briefly on an orbital mixer at 900 rpm. The plate was incubated for a further 25 minutes at 25° C. A 5× stock of Amplex buffer was prepared (0.25 M sodium phosphate, pH 7.4) and stored at 4° C. […] Horse radish peroxidase was diluted in […] of Amplex buffer, 100 μl of this was combined with 50 μl of Amplex Ultrared in […] of 1× Amplex buffer to generate sufficient detection reagent for a 384 well plate. 25 μl detection reagent was added to each well of the test plate, which was re-sealed and mixed briefly on an orbital shaker. The plate was transferred to an Envision Multi-label reader and RFU measured corresponding to excitation 531 nm and emission 595 nm. At the end of the MetAP2 incubation 25 μl Amplex/HRP mixture per well was added and the plate read plate on a plate reader.

[1] = test system: Diet Induced Obese (DIO) C57BL/6 mice; experiment: 10 day DIO mouse model, weight loss vs. vehicle; type: in vivo; details: 240 h; for inhibition in vivo at 0.3 mg/kg: 0.3 mpk sc once a day for 10 days; for inhibition in vivo at 1 mg/kg: 1.0 mpk sc once a day for 10 days
Excerpt: The objective of this study design was to investigate the efficacy of disclosed compounds in a 10 day DIO mouse model. Effects on body weight, food intake, hematology and blood chemistry were the primary readouts of this study design. Male, Diet Induced Obese (DIO) C57BL/6 mice, 19-21 weeks of age (13-15 weeks on high fat diet) were ordered from a certified vendor and upon receipt were housed on irradiated corncob bedding in micro-isolator cages on a 12-hour light-dark cycle (0700-1900) at 68-74° F. and 30-70% humidity. Mice were fed Research Diets D12492 (60% Kcal fat, 20% Kcal carbohydrate and 20% protein) and provided water ad libitum. DIO mice were received and housed in the facility for approximately two weeks prior to the start of test article administration. On Day −4 or −3, mice were randomized into study groups based on body weight and body weights were continued to be recorded daily for the duration of the study. Daily food intake was assessed starting on Study Day −2 by weighing of the food with hopper together to avoid loss of food in transfer.
Compounds were formulated into a 100% DMSO stock (at 9 mg/mL) prior to the start, and further diluted into the target working concentration using the vehicle of 10% DMSO in water. Prior to test article administration, starting on Day −3 a dosing acclimation occurred with all animals receiving a subcutaneous injection of vehicle (10% DMSO) only for 3 days. Starting on Day 1, test compounds or vehicle were administered based on individual body weight, subcutaneously, once a day for 10 days. All mice were sacrificed on Day 11, 24 hours following the final dosing on Day 10. After sacrifice, whole blood was collected and analyzed for hematology and blood chemistry parameters.
Compounds were tested for weight loss vs. vehicle at 0.3 and 1.0 mpk sc (mg per kg animal weight delivered subcutaneously), and the results are shown in Table 2 below.

T1 sequence (P50579 whole entry): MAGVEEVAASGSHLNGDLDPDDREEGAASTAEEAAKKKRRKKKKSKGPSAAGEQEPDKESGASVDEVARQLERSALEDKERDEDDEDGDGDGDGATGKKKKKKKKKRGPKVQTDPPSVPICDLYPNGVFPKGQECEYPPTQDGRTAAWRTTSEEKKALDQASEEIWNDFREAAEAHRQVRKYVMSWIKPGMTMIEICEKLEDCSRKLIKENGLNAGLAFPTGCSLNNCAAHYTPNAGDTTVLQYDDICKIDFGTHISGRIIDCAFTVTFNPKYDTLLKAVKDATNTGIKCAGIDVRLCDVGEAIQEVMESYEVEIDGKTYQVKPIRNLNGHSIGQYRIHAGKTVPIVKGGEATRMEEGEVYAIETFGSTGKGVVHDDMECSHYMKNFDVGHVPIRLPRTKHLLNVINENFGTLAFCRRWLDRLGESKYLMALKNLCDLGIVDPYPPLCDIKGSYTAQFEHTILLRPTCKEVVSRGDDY

Compound	IC50 (recombinant human MetAP2)	inhibition in vivo at 0.3 mg/kg [1]	inhibition in vivo at 1 mg/kg [1]
CO[C@@H]1[C@H](OC(=O)N[C@H](c2ccc(N3CCC3)nc2)C(C)C)CC[C@]2(CO2)[C@H]1[C@@]1(C)O[C@@H]1CC=C(C)C [Example 41, (3R,4S,5S,6R)-5-methoxy-4-((2R,3R)-2-methyl-3-(3-methylbut-2-enyl)oxiran-2-yl)-1-oxaspiro[2.5]octan-6-yl ((S)-1-(6-(azetidin-1-yl)pyridin-3-yl)-2-methylpropyl)carbamate]	< 50 nM	11.7%	–
CO[C@@H]1[C@H](OC(=O)N[C@H](c2cnn(C[C@@H]3CCN(C)C3)c2)C(C)C)CC[C@]2(CO2)[C@H]1[C@@]1(C)O[C@@H]1CC=C(C)C [Example 23, (3R,4S,5S,6R)-5-methoxy-4-((2R,3R)-2-methyl-3-(3-methylbut-2-enyl)oxiran-2-yl)-1-oxaspiro[2.5]octan-6-yl (S)-2-methyl-1-(1-(((R)-1-methylpyrrolidin-3-yl)methyl)-1H-pyrazol-4-yl)propylcarbamate]	50 to 500 nM	5.1%	–
CO[C@@H]1[C@H](OC(=O)N[C@H](c2noc(=O)[nH]2)C(C)C)CC[C@]2(CO2)[C@H]1[C@@]1(C)O[C@@H]1CC=C(C)C [Example 10, (3R,4S,5S,6R)-5-methoxy-4-((2R,3R)-2-methyl-3-(3-methylbut-2-enyl)oxiran-2-yl)-1-oxaspiro[2.5]octan-6-yl (S)-2-methyl-1-(5-oxo-4,5-dihydro-1,2,4-oxadiazol-3-yl)propylcarbamate]	50 to 500 nM	4.1%	2.9%
CO[C@@H]1[C@H](OC(=O)N[C@@H](Cc2nnc(N)s2)C(C)C)CC[C@]2(CO2)[C@H]1[C@@]1(C)O[C@@H]1CC=C(C)C [Example 37, (3R,4S,5S,6R)-5-methoxy-4-((2R,3R)-2-methyl-3-(3-methylbut-2-enyl)oxiran-2-yl)-1-oxaspiro[2.5]octan-6-yl (S)-1-(5-amino-1,3,4-thiadiazol-2-yl)-3-methylbutan-2-ylcarbamate]	50 to 500 nM	2.5%	–
CO[C@@H]1[C@H](OC(=O)N[C@H](c2cnn(C[C@H]3CCN(C)C3)c2)C(C)C)CC[C@]2(CO2)[C@H]1[C@@]1(C)O[C@@H]1CC=C(C)C [Example 22, (3R,4S,5S,6R)-5-methoxy-4-((2R,3R)-2-methyl-3-(3-methylbut-2-enyl)oxiran-2-yl)-1-oxaspiro[2.5]octan-6-yl (S)-2-methyl-1-(1-(((S)-1-methylpyrrolidin-3-yl)methyl)-1H-pyrazol-4-yl)propylcarbamate formate]	50 to 500 nM	4.7%	–
CNc1nnc([C@@H](NC(=O)O[C@@H]2CC[C@]3(CO3)[C@@H]([C@@]3(C)O[C@@H]3CC=C(C)C)[C@@H]2OC)C(C)C)s1 [Example 8, (3R,4S,5S,6R)-5-methoxy-4-((2R,3R)-2-methyl-3-(3-methylbut-2-enyl)oxiran-2-yl)-1-oxaspiro[2.5]octan-6-yl (S)-2-methyl-1-(5-(methylamino)-1,3,4-thiadiazol-2-yl)propylcarbamate]	50 to 500 nM	2%	–
CO[C@@H]1[C@H](OC(=O)N[C@H](Cc2nnc(N)o2)C(C)C)CC[C@]2(CO2)[C@H]1[C@@]1(C)O[C@@H]1CC=C(C)C [Example 32, (3R,4S,5S,6R)-5-methoxy-4-((2R,3R)-2-methyl-3-(3-methylbut-2-enyl)oxiran-2-yl)-1-oxaspiro[2.5]octan-6-yl (R)-1-(5-amino-1,3,4-oxadiazol-2-yl)-3-methylbutan-2-ylcarbamate]	< 50 nM	3.9%	0.8%
CNc1nnc([C@H](NC(=O)O[C@@H]2CC[C@]3(CO3)[C@@H]([C@@]3(C)O[C@@H]3CC=C(C)C)[C@@H]2OC)C(C)C)s1 [Example 7, (3R,4S,5S,6R)-5-methoxy-4-((2R,3R)-2-methyl-3-(3-methylbut-2-enyl)oxiran-2-yl)-1-oxaspiro[2.5]octan-6-yl (R)-2-methyl-1-(5-(methylamino)-1,3,4-thiadiazol-2-yl)propylcarbamate]	< 50 nM	1.8%	–
CO[C@@H]1[C@H](OC(=O)N[C@H](c2nccn2C[C@H]2CCCN2C)C(C)C)CC[C@]2(CO2)[C@H]1[C@@]1(C)O[C@@H]1CC=C(C)C [Example 5, (3R,4S,5S,6R)-5-methoxy-4-((2R,3R)-2-methyl-3-(3-methylbut-2-enyl)oxiran-2-yl)-1-oxaspiro[2.5]octan-6-yl (S)-2-methyl-1-(1-(((R)-1-methylpyrrolidin-2-yl)methyl)-1H-imidazol-2-yl)propylcarbamate formate]	50 to 500 nM	3.1%	–
CO[C@@H]1[C@H](OC(=O)N[C@H](c2cn(C[C@@H]3CCN(CC(F)F)C3)cn2)C(C)C)CC[C@]2(CO2)[C@H]1[C@@]1(C)O[C@@H]1CC=C(C)C [Example 19, (3R,4S,5S,6R)-5-methoxy-4-((2R,3R)-2-methyl-3-(3-methylbut-2-enyl)oxiran-2-yl)-1-oxaspiro[2.5]octan-6-yl (S)-1-(1-(((R)-1-(2,2-difluoroethyl)pyrrolidin-3-yl)methyl)-1H-imidazol-4-yl)-2-methylpropylcarbamate]	50 to 500 nM	1.9%	–
CO[C@@H]1[C@H](OC(=O)N[C@H](c2ccc(N3CC(F)(F)C3)nc2)C(C)C)CC[C@]2(CO2)[C@H]1[C@@]1(C)O[C@@H]1CC=C(C)C [Example 25, (3R,4S,5S,6R)-5-methoxy-4-((2R,3R)-2-methyl-3-(3-methylbut-2-enyl)oxiran-2-yl)-1-oxaspiro[2.5]octan-6-yl (S)-1-(6-(3,3-difluoroazetidin-1-yl)pyridin-3-yl)-2-methylpropylcarbamate]	50 to 500 nM	13%	–
CO[C@@H]1[C@H](OC(=O)N[C@H](c2cn(C[C@H]3CCN(C)C3)c(C)n2)C(C)C)CC[C@]2(CO2)[C@H]1[C@@]1(C)O[C@@H]1CC=C(C)C [Example 24, (3R,4S,5S,6R)-5-methoxy-4-((2R,3R)-2-methyl-3-(3-methylbut-2-enyl)oxiran-2-yl)-1-oxaspiro[2.5]octan-6-yl (S)-2-methyl-1-(2-methyl-1-(((S)-1-methylpyrrolidin-3-yl)methyl)-1H-imidazol-4-yl)propylcarbamate]	50 to 500 nM	8.2%	–
CO[C@@H]1[C@H](OC(=O)N[C@H](c2nnc[nH]2)C(C)C)CC[C@]2(CO2)[C@H]1[C@@]1(C)O[C@@H]1CC=C(C)C [Example 9, (3R,4S,5S,6R)-5-methoxy-4-((2R,3R)-2-methyl-3-(3-methylbut-2-enyl)oxiran-2-yl)-1-oxaspiro[2.5]octan-6-yl (S)-2-methyl-1-(4H-1,2,4-triazol-3-yl)propylcarbamate]	< 50 nM	2.1%	–
CO[C@@H]1[C@H](OC(=O)N[C@H](c2cn(C[C@@H]3CCCN3C)cn2)C(C)C)CC[C@]2(CO2)[C@H]1[C@@]1(C)O[C@@H]1CC=C(C)C [Example 14, (3R,4S,5S,6R)-5-methoxy-4-((2R,3R)-2-methyl-3-(3-methylbut-2-enyl)oxiran-2-yl)-1-oxaspiro[2.5]octan-6-yl (S)-2-methyl-1-(1-(((S)-1-methylpyrrolidin-2-yl)methyl)-1H-imidazol-4-yl)propylcarbamate formate]	< 50 nM	5.8%	10.3%
